The record followed here is patent US20220356174A1, “PYRIDIN-2-ONE COMPOUNDS USEFUL AS SMARCA2 ANTAGONISTS” (Epizyme, Inc., priority 2018, published 2022).

In assay [1] the test system is A549 subcutaneous xenograft. As to the kind of experiment: Efficacy study in subcutaneous A549 xenograft model (tumor volume, tumor weight, TGI). The following applies: for Volume-based TGI(%) / Weight-based TGI(%): Day 21, P < 0.001. The format is in vivo, BALB/c nude mice. The protocol:
The efficacy of compound 82c was studied in vivo for the treatment of A549 subcutaneous xenograft model in BALB/c nude mice. Seventy-five BALB/c nude female mice were injected cell A549 at 1×10^7 per mouse.
Fifty mice were selected and assigned into five groups using randomized block design based upon their tumor volumes and 10 mice per group. The 5 groups were treated p.o. with vehicle (0.5% NaCMC 0.1% Tween pH4), compound 82c 5 mg/kg BIDx21, 12.5 mg/kg BIDx10/QDx11, 25 mg/kg BIDx7/QDx14 and 50 mg/kg QDx10/3 days off/30 mg/kg QDx8.
All mice from 12.5 mg/kg BID were adjusted from BID to QD from treatment Day 11 until to the end of the study. #36˜#40 mice from group 25 mg/kg BID were compound administration holiday due to mice body weight loss. All mice from group 25 mg/kg BID were adjusted from BID to QD from treatment Day 8. All mice from group 50 mg/kg QD were compound administration holiday from Day 11 to Day 13 due to mice body weight loss and this group was adjusted from 50 mg/kg to 30 mg/kg until the end of the study.
Tumor Inoculation. Each mouse was inoculated subcutaneously at the right flank with A549 tumor cells (1×10^7 cells/mouse) in 0.2 mL of base media (F12K) for tumor development. The treatments were started when the tumor size reached 126.94 mm^3 for the tumor efficacy study (Day 14 post inoculation). Fifty tumor-bearing mice were block randomized into 5 groups with 10 mice in each.
Tumor Measurements and Endpoints. The major endpoint was tumor growth delay or cure. Tumor size was measured twice weekly in two dimensions using a caliper, and the volume was expressed in mm^3 using the formula: V=0.5 a×b^2 where a and b were the long and short diameters of the tumor, respectively. The tumor size was then used for calculations of T/C (%) values. T/C (%) was calculated according to the following equation: T/C (%)=TRTV/CRTV×[…] TRTV=TVtreatment-Dn/TVtreatment-D1, CRTV=TVcontrol-Dn/TVcontrol-D1, T/C (%)<42%, it was considered to be effective. The tumor size was then used for calculations of TGI (%) values. TGI (%) was calculated according to the following equation: TGI (%)=(1−(TVTreatment/Dx−TVTreatment/D1)/(TVControl/Dx−TVControl/D1))×100%, TGI[…]58 means this medicine is effective. The tumor weight was then used for calculations of TGI (%) values. TGI (%) was calculated according to the following equation: TGI (%)=(1−TWTreatment/TWControl)×100%
Statistical Analysis. Summary statistics, including mean and the standard error of the mean (SEM), were provided for the tumor volumes of each group at each time point. Statistical analyses of difference in tumor volumes among the groups were conducted on Day 21 after the last dose. Statistical analysis of difference in tumor volume and tumor weight among the groups was conducted. All data was analyzed using GraphPad Prism software. P<0.05 was considered to be statistically significant. A two-way ANOVA combined with Bonferroni post-test was performed to compare tumor volumes among vehicle and all treatment groups. A one-way ANOVA combined with Dunnett's Multiple Comparison Test to compare tumor weight among vehicle and all treatment groups.

The target of another assay is T1, SMARCA2 (Homo sapiens, UniProt P51531).
T1 construct: FLAG tag (YKDDDDK) (C); made in house; host or cells: Sf21 insect cells (baculovirus, pFastBacI)
In words: SMARCA2 FRET nucleosome remodeling activity assay. The format is biochemical. Here is the method:
The SMARCA2 remodeling assay was initiated by the addition of 2 uL of a nucleosome remodeling assay substrate and ATP mixture (final volume=10 uL). […] The assays were terminated after 15 minutes by the addition of 2 uL EDTA (final concentration of 25 mM). The SMARCA2 remodeling activity was determined by measuring the fluorescence ratio of the Cy3 and Cy5 labels ([…]). The remodeling of the nucleosome substrate causes an increase in the spacing between the Cy3 and Cy5 labels and therefore a reduction in FRET and an increase in Cy3/Cy5 fluorescence ratio.

Setting [2] is: 50 mg/kg QD×10, 3 days off, 30 mg/kg QD×8, p.o.

In general, IC50 refers to the concentration that inhibits the measured activity by half. A higher IC50 goes with weaker potency in that assay.

Structures are written as SMILES. Marks after values point to notes of the source that are not given here.

T1 sequence (P51531 with tags, fused parts or gaps): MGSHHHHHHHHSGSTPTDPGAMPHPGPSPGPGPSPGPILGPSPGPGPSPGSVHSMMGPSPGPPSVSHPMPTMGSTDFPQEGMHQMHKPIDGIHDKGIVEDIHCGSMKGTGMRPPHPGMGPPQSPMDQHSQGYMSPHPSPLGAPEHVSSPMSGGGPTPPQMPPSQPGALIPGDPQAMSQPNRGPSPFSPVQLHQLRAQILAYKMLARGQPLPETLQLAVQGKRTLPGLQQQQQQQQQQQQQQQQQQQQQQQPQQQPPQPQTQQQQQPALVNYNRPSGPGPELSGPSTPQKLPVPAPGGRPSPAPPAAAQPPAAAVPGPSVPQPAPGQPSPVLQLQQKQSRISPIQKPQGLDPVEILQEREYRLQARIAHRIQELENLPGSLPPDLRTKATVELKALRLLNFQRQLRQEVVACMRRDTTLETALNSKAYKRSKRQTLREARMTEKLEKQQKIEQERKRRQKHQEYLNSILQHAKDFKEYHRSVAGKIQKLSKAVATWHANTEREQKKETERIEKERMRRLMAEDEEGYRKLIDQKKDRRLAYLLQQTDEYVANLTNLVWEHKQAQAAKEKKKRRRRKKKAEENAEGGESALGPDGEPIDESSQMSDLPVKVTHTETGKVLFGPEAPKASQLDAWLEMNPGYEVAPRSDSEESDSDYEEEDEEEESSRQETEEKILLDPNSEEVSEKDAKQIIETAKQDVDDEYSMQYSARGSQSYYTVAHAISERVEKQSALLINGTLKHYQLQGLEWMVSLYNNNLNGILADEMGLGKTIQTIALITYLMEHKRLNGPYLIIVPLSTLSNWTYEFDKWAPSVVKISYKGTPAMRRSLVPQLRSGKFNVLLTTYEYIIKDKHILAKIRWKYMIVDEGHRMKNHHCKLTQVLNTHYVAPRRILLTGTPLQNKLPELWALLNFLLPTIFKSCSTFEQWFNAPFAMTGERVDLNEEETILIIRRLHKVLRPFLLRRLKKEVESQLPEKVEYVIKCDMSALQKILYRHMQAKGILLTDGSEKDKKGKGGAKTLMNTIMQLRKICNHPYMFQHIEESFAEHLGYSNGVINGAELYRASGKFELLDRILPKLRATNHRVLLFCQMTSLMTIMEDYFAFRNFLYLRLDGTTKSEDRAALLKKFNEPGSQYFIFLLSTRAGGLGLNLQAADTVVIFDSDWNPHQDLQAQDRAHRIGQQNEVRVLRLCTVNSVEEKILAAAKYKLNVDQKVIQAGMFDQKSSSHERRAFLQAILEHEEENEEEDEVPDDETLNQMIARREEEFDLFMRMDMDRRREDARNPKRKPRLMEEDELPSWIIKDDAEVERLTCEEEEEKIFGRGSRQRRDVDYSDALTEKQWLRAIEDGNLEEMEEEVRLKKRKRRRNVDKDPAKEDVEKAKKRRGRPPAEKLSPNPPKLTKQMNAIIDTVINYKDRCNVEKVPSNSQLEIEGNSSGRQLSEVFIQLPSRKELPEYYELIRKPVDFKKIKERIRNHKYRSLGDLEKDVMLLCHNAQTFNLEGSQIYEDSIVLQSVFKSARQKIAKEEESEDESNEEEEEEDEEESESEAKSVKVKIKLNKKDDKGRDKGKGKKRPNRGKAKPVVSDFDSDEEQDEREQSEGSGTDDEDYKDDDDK

For the compound `N#Cc1cc(C(=O)Nc2cc(F)c(=O)n(CC(F)F)c2)sc1C(F)(F)F` [Compound 82c, 4-cyano-N-[1-(2,2-difluoroethyl)-5-fluoro-6-oxopyridin-3-yl]-5-(trifluoromethyl)thiophene-2-carboxamide], in assay [1] (5 mg/kg BID×21, p.o.), the “Tumor Volume (mm^3), Day 21” value came to 737.75 ± 78.79 mm^3; the “Tumor Weight (g), Day 21” value is given as 0.773 ± 0.052 g; the “Volume-based TGI(%)” value was 57.01* %; the “Weight-based TGI(%)” value is listed as 47.23* %. In assay [1] (12.5 mg/kg BID×10 QD×11, p.o.), the “Tumor Volume (mm^3), Day 21” value was 579.14 ± 59.39 mm^3; the “Tumor Weight (g), Day 21” value turned out to be 0.609 ± 0.063 g; the “Volume-based TGI(%)” value is listed as 68.31* %; the “Weight-based TGI(%)” value is recorded as 58.44* %. Moreover, in assay [1] (25 mg/kg BID×7 QD×14, p.o.), the “Tumor Volume (mm^3), Day 21” value was 469.53 ± 70.97 mm^3; the “Tumor Weight (g), Day 21” value was determined as 0.509 ± 0.077 g; the “Volume-based TGI(%)” value was 75.87* %; the “Weight-based TGI(%)” value is given as 65.26* %. Besides, in assay [1] (setting [2]), the “Tumor Volume (mm^3), Day 21” value stood at 461.87 ± 60.61 mm^3; the “Tumor Weight (g), Day 21” value was determined as 0.496 ± 0.058 g; the “Volume-based TGI(%)” value is given as 76.56* %; the “Weight-based TGI(%)” value is given as 66.17* %.

`N#Cc1sc(C(=O)Nc2cc(F)c(=O)n(CCF)c2)cc1Cl` [Compound 139] returned an IC50 at SMARCA2 of 25.3 nM.

At SMARCA2, `O=C(Nc1cc(F)c(=O)n(CC(F)F)c1)c1cc(Cl)c(C(F)(F)F)s1` [Compound 298, 4-Chloro-N-(1-(2,2-difluoroethyl)-5-fluoro-6-oxo-1,6-dihydropyridin-3-yl)-5-(trifluoromethyl)thiophene-2-carboxamide] gave an IC50 of 47.1 nM.
